The record followed here is patent publication US20140377403A1, “METHOD FOR EVALUATING FLAVOR-IMPROVING AGENT” (T. HASEGAWA CO., LTD., priority 2011, published 2014).

The subject of one experiment is subjects. Nature of the experiment: Sensory evaluation of strength of taste of sample solutions by subjects. It counts as in vivo, human. The settings on record: for strength of sensory sweetness: subjects who showed a change in salivary gland response in Example 2. The source says: Each subject is held in a resting state, keeps water in the mouth such that the water spreads throughout the mouth for 30 seconds, then swallows the water, and then is held in a resting state for 60 seconds. Subsequently, the subject keeps a sample in the mouth to carefully taste the sample in the mouth for 30 seconds, then swallows the sample, and then is held in a resting state for 60 seconds again. Subsequently, the subject keeps water in the mouth again such that the water spreads throughout the mouth for 30 seconds, then swallows the water, and then is held in a resting state for 60 seconds. Subsequently, the subject keeps another sample in the mouth to carefully taste the sample in the mouth for 30 seconds, then swallows the sample, and then is held in a resting state for 60 seconds again. Thus, drinking of water and drinking of a sample are alternately repeated (FIG. 2). A sample can be evaluated at about four or five different concentrations in each experiment. […] Samples at previously selected four or five different concentrations are sequentially evaluated by the above-described procedure. During the evaluation of the sample, including the times of drinking and resting, the blood flow is measured, and the change therein is recorded. In addition, sensory evaluation is performed during the tasting of the sample in the mouth for 30 seconds. After completion of the evaluation at a series of four or five concentrations, the strength of flavor of the sample is concluded lastly to fill the sensory evaluation sheet (FIG. 3).
The sensory evaluation was performed in accordance with the evaluation questionnaire shown in FIG. 3 for the strength of taste as 0: tasteless, 3: weak, 6: moderate, 9: strong, and 12: very strong.
The samples of four different concentrations were subjected to sensory evaluation from a lower concentration of ethylmaltol to a higher concentration sequentially in accordance with the time schedule shown in FIG. 2 as in Example 1.

In a further experiment the test system is salivary gland. Nature of the experiment: Salivary gland response: change in blood flow (signal strength) at a periphery of the temple of the forehead, measured with an optical topography system. The class given is in vivo, human. From the text: Each subject is held in a resting state, keeps water in the mouth such that the water spreads throughout the mouth for 30 seconds, then swallows the water, and then is held in a resting state for 60 seconds. Subsequently, the subject keeps a sample in the mouth to carefully taste the sample in the mouth for 30 seconds, then swallows the sample, and then is held in a resting state for 60 seconds again. Subsequently, the subject keeps water in the mouth again such that the water spreads throughout the mouth for 30 seconds, then swallows the water, and then is held in a resting state for 60 seconds. Subsequently, the subject keeps another sample in the mouth to carefully taste the sample in the mouth for 30 seconds, then swallows the sample, and then is held in a resting state for 60 seconds again. Thus, drinking of water and drinking of a sample are alternately repeated (FIG. 2). A sample can be evaluated at about four or five different concentrations in each experiment. […] Samples at previously selected four or five different concentrations are sequentially evaluated by the above-described procedure. During the evaluation of the sample, including the times of drinking and resting, the blood flow is measured, and the change therein is recorded. In addition, sensory evaluation is performed during the tasting of the sample in the mouth for 30 seconds. After completion of the evaluation at a series of four or five concentrations, the strength of flavor of the sample is concluded lastly to fill the sensory evaluation sheet (FIG. 3). When a sample is drunk in accordance with the above-described procedure, the blood flow at a periphery of the temple of the forehead gradually increases after putting the sample into the mouth, and the signal strength reaches the maximum within about 5 to 30 seconds. Subsequently, the signal strength gradually decreases and reaches the original level within about 60 seconds after putting the sample into the mouth. Accordingly, a value obtained by subtracting the “minimum” blood flow within about 15 seconds after the moment of putting a sample into the mouth from the “maximum” blood flow during from about 5 to 30 seconds after putting the sample into the mouth at a specific site, i.e., the response strength of a change in blood flow, is defined as a change in signal strength at the periphery of the temple of the forehead. […] A probe (FIG. 1) having a large number of sensors connected to an optical topography system body was set to the head of each subject, and then each sample was given to the subjects sequentially, followed by measurement. In accordance with the time schedule shown in FIG. 2, after resting, water was first given, and then a sample was given to aggressively evaluate the flavor. The order of drinking aqueous solutions of one kind of a taste substance given to the subjects was from a lower concentration to a higher concentration sequentially. (1) FIG. 4 is a graph illustrating the amount of typical change in oxygenated hemoglobin with time when water was put in the mouth and drunk and then a sample was put in the mouth and drunk, measured with an optical topography system at a periphery of the temple of the forehead (channel 52). […] The response strength was determined by that “when the time at which a sample was drunk is defined as a time of 0 second, (the maximum blood flow within 5 to 30 seconds)−(the minimum blood flow within 0 to 15 seconds)”.

The mark [1] stands for this setting: 0, 1, 5, 10 ppm added to 4% aqueous sugar solution.

With `OCCc1ccccc1` [2-phenylethyl alcohol], the “strength of sensory sweetness” value in the experiment with subjects (setting [1]) is on record as “No increase”.

Regarding `CC(C)=CCCC(C)=CC=O` [citral], the “strength of sensory acidity” value with subjects (0, 1, 5, 10 ppm added to 0.1% aqueous citric acid solution, subjects showing a change in salivary gland response to a known flavor-improving agent) is recorded as “increased with the concentration”. The “strength of sensory sweetness” value with subjects (setting [1]) was “No increase”. Also, the “response measured at the periphery of the temple of the forehead compared with 0.1% aqueous citric acid solution alone” value in the experiment on salivary gland (0, 1, 5, 10 ppm added to 0.1% aqueous citric acid solution, subjects showing a change in salivary gland response to a known flavor-improving agent, FIG. 10) is “enhanced”.

As for `CCc1occc(=O)c1O` [ethylmaltol, reference compound], the “strength of sensual sweetness” value in the experiment with subjects (0, 1, 5, 10 ppm added to 4% aqueous sugar solution, eight arbitrarily selected subjects) was “increased with the amount of ethylmaltol”. In the experiment on salivary gland (0, 1, 5, 10 ppm added to 4% aqueous sugar solution, eight arbitrarily selected subjects, FIGS. 6 and 7), the “signal strength compared with 4% aqueous sugar solution alone” value is listed as “An enhancement in signal strength by addition of ethylmaltol was confirmed in six subjects”.

Take `COc1ccc(C=CC=O)cc1` [p-methoxycinnamaldehyde]: in the experiment with subjects (setting [1]), the “strength of sensory sweetness” value is “increased with the concentration”. In addition, in the experiment with salivary gland (0, 1, 5, 10 ppm added to 4% aqueous sugar solution, subjects who showed a change in salivary gland response in Example 2, FIGS. 8 and 9), the “response measured at the periphery of the temple of the forehead compared with 4% aqueous sugar solution alone” value was “enhanced”.

As to `OC[C@H]1O[C@@](CO)(O[C@H]2O[C@H](CO)[C@@H](O)[C@H](O)[C@H]2O)[C@@H](O)[C@@H]1O` [sugar], the “response strength measured at a periphery of the temple of the forehead, compared with water” value in the experiment on salivary gland (aqueous sugar solution 0 to 8%, eight arbitrarily selected subjects) was “larger than that to water in all subjects”. Moreover, the “dependence of response strength on sample concentration and sweetness strength” value with salivary gland (sugar concentration range 0 to 8%, eight subjects) is “an enhancement of the response strength depending on the sample concentration and the sweetness strength was observed”.
